In patent publication US20260125382A1, “COMPOUNDS FOR INHIBITING OR DEGRADING CDK2 AND/OR CDK9 AND MEDICINAL USE THEREOF” (KOREA RESEARCH INSTITUTE OF CHEMICAL TECHNOLOGY, priority 2022, published 2026):

How the values were obtained:
CDK2 = molecular target: T1, CDK2 (Homo sapiens, UniProt P24941); experiment: CDK protein degradation activity (Western blotting), CDK2; assay type: cell-based; conditions: MDA-MB-231 cells, 16 hours, Western blot
T1 construct: endogenous in cells; host or cells: MDA-MB-231
Procedure, shortened: (§1)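 Protein levels were read by Western blot densitometry, tubulin serving as loading reference. Beforehand, MDA-MB-231 cells had been exposed for 16 hours to 100 nM, 1 μM or 10 μM compound, DMSO as control.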

CDK9 = molecular target: T2, CDK9 (Homo sapiens, UniProt P50750); experiment: CDK protein degradation activity (Western blotting), CDK9; assay type: cell-based; conditions: MDA-MB-231 cells, 16 hours, Western blot
T2 construct: endogenous in cells; host or cells: MDA-MB-231
Procedure, shortened: as §1

T2 sequence (P50750 whole entry): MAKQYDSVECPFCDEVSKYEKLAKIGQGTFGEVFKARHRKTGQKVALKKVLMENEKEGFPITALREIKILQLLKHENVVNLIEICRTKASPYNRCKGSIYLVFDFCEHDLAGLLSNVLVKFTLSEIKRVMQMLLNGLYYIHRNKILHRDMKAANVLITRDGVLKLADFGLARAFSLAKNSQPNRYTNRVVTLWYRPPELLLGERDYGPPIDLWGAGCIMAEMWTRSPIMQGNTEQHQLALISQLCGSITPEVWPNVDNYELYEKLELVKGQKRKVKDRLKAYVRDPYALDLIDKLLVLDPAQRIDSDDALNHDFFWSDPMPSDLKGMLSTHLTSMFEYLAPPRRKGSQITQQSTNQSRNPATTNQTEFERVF

Row | Enzyme degradation CDK2 (% remaining) @ 0.1 μM (CDK2) | Enzyme degradation CDK2 (% remaining) @ 1 μM (CDK2) | Enzyme degradation CDK2 (% remaining) @ 10 μM (CDK2) | Enzyme degradation CDK9 (% remaining) @ 0.1 μM (CDK9) | Enzyme degradation CDK9 (% remaining) @ 1 μM (CDK9) | Enzyme degradation CDK9 (% remaining) @ 10 μM (CDK9) | Structure (SMILES)
1 | 80% | 90% | 80% | 80% | 90% | 70% | Cc1cccc(C(=O)NC2CC(n3cnc4c(NCCCN5CCN(C(=O)CNc6cccc7c6C(=O)N([C@@H]6CCC(=O)NC6=O)C7=O)CC5)ncnc43)C2)n1 (stereo partly drawn) [Compound 139, N-((1r,3r)-3-(6-((3-(4-((2-(2,6-dioxopiperidin-3-yl)-1,3-dioxoisoindolin-4-yl)glycyl)piperazin-1-yl)propyl)amino)-9H-purin-9-yl)cyclobutyl)-6-methylpicolinamide]
2 | 70% | 50% | 60% | 90% | 80% | 50% | Cc1cccc(C(=O)N[C@H]2C[C@H](n3cnc4c(NCCCN5CCN(C(=O)CNc6ccc7c(c6)C(=O)N([C@@H]6CCC(=O)NC6=O)C7=O)CC5)ncnc43)C2)n1 [Compound 141, N-((1r,3r)-3-(6-((3-(4-((2-(2,6-dioxopiperidin-3-yl)-1,3-dioxoisoindolin-5-yl)glycyl)piperazin-1-yl)propyl)amino)-9H-purin-9-yl)cyclobutyl)-6-methylpicolinamide]
3 | 80% | 70% | 50% | 70% | 0% | 0% | Cc1cccc(C(=O)NC2CC(n3cnc4c(NCCCN5CCN(CC6CCN(C(=O)COc7cccc8c7C(=O)N([C@@H]7CCC(=O)NC7=O)C8=O)CC6)CC5)ncnc43)C2)n1 (stereo partly drawn) [Compound 142, N-((1r,3r)-3-(6-((3-(4-((1-(2-((2-(2,6-dioxopiperidin-3-yl)-1,3-dioxoisoindolin-4-yl)oxy)acetyl)piperidin-4-yl)methyl)piperazin-1-yl)propyl)amino)-9H-purin-9-yl)cyclobutyl)-6-methylpicolinamide]
4 | 80% | 50% | 100% | 0/0/0% | 0/0/0% | 0/0/0% | Cc1cccc(C(=O)NC2CC(n3cnc4c(NCCCN5CCN(CC6CCN(C(=O)CNc7cccc8c7C(=O)N([C@@H]7CCC(=O)NC7=O)C8=O)CC6)CC5)ncnc43)C2)n1 (stereo partly drawn) [Compound 143, N-((1r,3r)-3-(6-((3-(4-((1-((2-(2,6-dioxopiperidin-3-yl)-1,3-dioxoisoindolin-4-yl)glycyl)piperidin-4-yl)methyl)piperazin-1-yl)propyl)amino)-9H-purin-9-yl)cyclobutyl)-6-methylpicolinamide]
5 | 100% | 70% | 70% | 80% | 10% | 0% | Cc1cccc(C(=O)NC2CC(n3cnc4c(NCCCN5CCN(CC6CCN(C(=O)COc7ccc8c(c7)C(=O)N([C@@H]7CCC(=O)NC7=O)C8=O)CC6)CC5)ncnc43)C2)n1 (stereo partly drawn) [Compound 144, N-((1r,3r)-3-(6-((3-(4-((1-(2-((2-(2,6-dioxopiperidin-3-yl)-1,3-dioxoisoindolin-5-yl)oxy)acetyl)piperidin-4-yl)methyl)piperazin-1-yl)propyl)amino)-9H-purin-9-yl)cyclobutyl)-6-methylpicolinamide]
6 | 30% | 50% | 50% | 0/0/0% | 0/0/0% | 0/0/0% | Cc1cccc(C(=O)NC2CC(n3cnc4c(NCCCN5CCN(CC6CCN(C(=O)CNc7ccc8c(c7)C(=O)N([C@@H]7CCC(=O)NC7=O)C8=O)CC6)CC5)ncnc43)C2)n1 (stereo partly drawn) [Compound 145, N-((1r,3r)-3-(6-((3-(4-((1-((2-(2,6-dioxopiperidin-3-yl)-1,3-dioxoisoindolin-5-yl)glycyl)piperidin-4-yl)methyl)piperazin-1-yl)propyl)amino)-9H-purin-9-yl)cyclobutyl)-6-methylpicolinamide]
7 | 40% | 50% | 60% | 10% | 0% | 0% | Cc1cccc(C(=O)NC2CC(n3cnc4c(NCc5ccc(N6CCN(C(=O)CNc7cccc8c7C(=O)N([C@H]7CCC(=O)NC7=O)C8=O)CC6)cc5)ncnc43)C2)n1 (stereo partly drawn) [Compound 148, N-((1s,3s)-3-(6-((4-(4-((2-(2,6-dioxopiperidin-3-yl)-1,3-dioxoisoindolin-4-yl)glycyl)piperazin-1-yl)benzyl)amino)-9H-purin-9-yl)cyclobutyl)-6-methylpicolinamide]
8 | 10% | 20% | 20% | 0/0/0% | 0/0/0% | 0/0/0% | Cc1cccc(C(=O)N[C@H]2C[C@@H](n3cnc4c(NCc5ccc(N6CCN(C(=O)CNc7ccc8c(c7)C(=O)N([C@H]7CCC(=O)NC7=O)C8=O)CC6)cc5)ncnc43)C2)n1 [Compound 149, N-((1s,3s)-3-(6-((4-(4-((2-(2,6-dioxopiperidin-3-yl)-1,3-dioxoisoindolin-5-yl)glycyl)piperazin-1-yl)benzyl)amino)-9H-purin-9-yl)cyclobutyl)-6-methylpicolinamide]
9 | 70% | 80% | 80% | 20% | 10% | 0% | Cc1cccc(C(=O)NC2CC(n3cnc4c(NCc5ccc(N6CCN(CC7CCN(c8cccc9c8C(=O)N([C@H]8CCC(=O)NC8=O)C9=O)CC7)CC6)cc5)ncnc43)C2)n1 (stereo partly drawn) [Compound 150, N-((1s,3s)-3-(6-((4-(4-((1-(2-(2,6-dioxopiperidin-3-yl)-1,3-dioxoisoindolin-4-yl)piperidin-4-yl)methyl)piperazin-1-yl)benzyl)amino)-9H-purin-9-yl)cyclobutyl)-6-methylpicolinamide]
10 | 30% | 10% | 10% | 0/0/0% | 0/0/0% | 0/0/0% | Cc1cccc(C(=O)N[C@H]2C[C@@H](n3cnc4c(NCc5ccc(N6CCN(CC7CCN(c8ccc9c(c8)C(=O)N([C@H]8CCC(=O)NC8=O)C9=O)CC7)CC6)cc5)ncnc43)C2)n1 [Compound 151, N-((1s,3s)-3-(6-((4-(4-((1-(2-(2,6-dioxopiperidin-3-yl)-1,3-dioxoisoindolin-5-yl)piperidin-4-yl)methyl)piperazin-1-yl)benzyl)amino)-9H-purin-9-yl)cyclobutyl)-6-methylpicolinamide]
11 | 10/10/10% | 10/10/10% | 10/10/10% | 0/0/0% | 0/0/0% | 0/0/0% | Cc1cccc(C(=O)NC2CC(n3cnc4c(NCc5ccc(N6CCN(CC7CCN(C(=O)CNc8cccc9c8C(=O)N([C@H]8CCC(=O)NC8=O)C9=O)CC7)CC6)cc5)ncnc43)C2)n1 (stereo partly drawn) [Compound 152, N-((1s,3s)-3-(6-((4-(4-((1-((2-(2,6-dioxopiperidin-3-yl)-1,3-dioxoisoindolin-4-yl)glycyl)piperidin-4-yl)methyl)piperazin-1-yl)benzyl)amino)-9H-purin-9-yl)cyclobutyl)-6-methylpicolinamide]
12 | 10/10/10% | 10/10/10% | 10/10/10% | 0/0/0% | 0/0/0% | 0/0/0% | Cc1cccc(C(=O)NC2CC(n3cnc4c(NCc5ccc(N6CCN(CC7CCN(C(=O)CNc8ccc9c(c8)C(=O)N([C@H]8CCC(=O)NC8=O)C9=O)CC7)CC6)cc5)ncnc43)C2)n1 (stereo partly drawn) [Compound 153, N-((1s,3s)-3-(6-((4-(4-((1-((2-(2,6-dioxopiperidin-3-yl)-1,3-dioxoisoindolin-5-yl)glycyl)piperidin-4-yl)methyl)piperazin-1-yl)benzyl)amino)-9H-purin-9-yl)cyclobutyl)-6-methylpicolinamide]
13 | 100% | 70% | 70% | 90% | 70% | 30% | CC(=O)N[C@H]1C[C@@H](n2cnc3c(NCC4CCN(CC5CCN(C(=O)COc6ccc7c(c6)C(=O)N([C@H]6CCC(=O)NC6=O)C7=O)CC5)CC4)ncnc32)C1 [Compound 154, N-((1s,3s)-3-(6-(((1-((1-(2-((2-(2,6-dioxopiperidin-3-yl)-1,3-dioxoisoindolin-5-yl)oxy)acetyl)piperidin-4-yl)methyl)piperidin-4-yl)methyl)amino)-9H-purin-9-yl)cyclobutyl)acetamide]
